{"source": "patent US10449186B2", "about": "“Phenylethynyl-substituted benzenes and heterocycles for the treatment of cancer” (UNIVERSITY OF KENTUCKY RESEARCH FOUNDATION, priority 2017, dated 2019)", "key": {"[1]": {"system": "LS174T colon cancer cells", "details": "data from Sviripa et al. 2014, cited from earlier work; for inhibition of proliferation (%) of colon cancer LS174T cells: Table 1; for inhibition of cell proliferation (%) of colon cancer LS174T cells: Table 2"}, "[2]": {"system": "cyclin D1", "experiment": "Western blot, cyclin D1 expression in LS174T cells", "type": "cell-based", "details": "300 nM", "procedure": "(§1) FIG. 2A is a western blot showing the effects of 4-((2,6-difluorophenyl)ethynyl)-N,N-dimethylaniline (2), 4-((2,6-difluorophenyl)ethynyl)-N,N-dimethylisoquinolin-1-amine (5nn), and 4-((2,6-difluorophenyl)ethynyl)-N-methylisoquinolin-1-amine (5oo) on the expression of […] and p21^Wif1/Cip1 in LS174T cells at 300 nM concentrations.\n(§2) Western blotting. Western blotting was performed as described previously. The following antibodies were used: anti-c-myc (Epitomics, 1472-1), anti-p21^Wif1/Cip1 (Cell Signaling, 2947), anti-β-tubulin (DSHB, E7)."}, "[3]": {"system": "LS174T colon cancer cells", "experiment": "LS174T cell proliferation assay", "type": "cell-based", "details": "Homo sapiens, LS174T, read-out: IC50, LS174T cell proliferation assay", "procedure": "Cell proliferation assay. LS174T cells were grown in RPMI medium (Mediatech) supplemented with 5% fetal bovine serum and 1% penicillin/streptomycin. For cell proliferation assays, 3×10^4 cells/well growing in 12-well plates were treated with DMSO or inhibitors. The cell numbers and viability were analyzed by Vi-Cell Cell Viability Analyzer after 4 days. The IC50 values were calculated with GraphPad Prim 5."}, "[4]": {"experiment": "Water solubility", "details": "parent compound"}, "[5]": {"system": "p21^Wif1/Cip1", "experiment": "Western blot, p21^Wif1/Cip1 expression in LS174T cells", "type": "cell-based", "details": "300 nM", "procedure": "as §1, §2"}}, "note": "Where two headings read alike, the source gives them in different places."}
{"smiles": "CN(C)c1ccc(C#Cc2c(F)cccc2F)cc1", "note": "[Compound 2, 4-((2,6-difluorophenyl)ethynyl)-N,N-dimethylaniline]", "values": [{"measurement": "inhibition of proliferation (%) of colon cancer LS174T cells", "setting": "[1]; 100 nM", "result": 85.2, "unit": "%"}, {"measurement": "inhibition of proliferation (%) of colon cancer LS174T cells", "setting": "[1]; 1 μM", "result": 99.5, "unit": "%"}, {"measurement": "inhibition of cell proliferation (%) of colon cancer LS174T cells", "setting": "[1]; 30 nM", "result": "57 ± 1.2", "unit": "%"}, {"measurement": "inhibition of cell proliferation (%) of colon cancer LS174T cells", "setting": "[1]; 100 nM", "result": "85.2 ± 0.5", "unit": "%"}, {"measurement": "inhibition of cell proliferation (%) of colon cancer LS174T cells", "setting": "[1]; 1 μM", "result": "99.5 ± 0.1", "unit": "%"}, {"measurement": "cyclin D1 expression (western blot)", "setting": "[2]", "result": "inhibited cyclin D1 expression"}, {"measurement": "IC50", "setting": "[3]", "result": "25.1 ± 1.3", "unit": "nM"}, {"measurement": "water solubility", "setting": "[4]", "result": "sparingly water-soluble"}, {"measurement": "p21^Wif1/Cip1 expression (western blot)", "setting": "[5]", "result": "induced p21^Wif1/Cip1"}]}
